Measured values: patent US20100256357A1, “HETEROCYCLES USEFUL AS INHIBITORS OF CARBONIC ANHYDRASE” (Agouron Pharmaceuticals, Inc., priority 2006, published 2010)

What follows are molecules tested against T1, human CA-IV (Homo sapiens, UniProt P22748) (assay: Carbonic Anhydrase-IV (CA-IV) Fluorescence Polarization Assay-IC50 Determination). Conditions: read-out: IC50_CAIV.
T1 construct: made in house; host or cells: Escherichia coli BL21(DE3)
Type: binding
Protocol: Carbonic Anhydrase-IV (CA-IV) Fluorescence Polarization Assay-IC50 Determination
These cells were grown in Luria broth (LB) media (Biomyx) supplemented with 800 uM ZnCl2 at 37° C. until an O.D.600 of 0.7, at which point the cells were induced with 100 uM isopropyl-beta-D-thiogalactopyranoside (IPTG) for 20 hours at 20° C. The frozen pellet was resuspended in 50mM 2-morpholinoethanesulfonic acid (MES) at pH 6.0, 100 mM NaCl, 800 uM ZnCl2 and EDTA-Free protease inhibitors (Roche). The cells were lysed with a microfluidizer, the lysate was spun at 40,000 rpm for 45 minutes at 4° C., and the soluble fraction was dialyzed overnight at 4° C. in 50 mM MES pH 6.0, and 100 mM NaCl. The soluble fraction was then put over a 100 ml SP-Sepharose High Performance (GE Healthcare) column and eluted with a 50 mM MES pH 6.0, 750 mM NaCl gradient. The peak fractions were then concentrated, via an Amicon Ultra-4 10,000 MWCO (Millipore) spin column to 2.0 mL and loaded onto a Sephacryl S-100 High Resolution (GE Healthcare) column in 25 mM tris(hydroxymethyl)aminomethane hydrochloride (Tris-HCl) pH 7.0, and 100 mM NaCl. The peak fractions were then concentrated, via an Amicon Ultra-4 10,000 MWCO (Millipore) spin column, to 7.0 mg/mL and left exposed at room temperature overnight. […] T.; et al. Carbonic Anhydrase Inhibitors. Med. Res. Rev. […]
Assays were conducted in a final volume of 100 μL in 50 mM Tris/HCl (pH 7.6), 100 mM Na2SO4 and 0.005% Tween-20 in a 96-well black assay plate.

T1 sequence (P22748 19-284 limits assumed): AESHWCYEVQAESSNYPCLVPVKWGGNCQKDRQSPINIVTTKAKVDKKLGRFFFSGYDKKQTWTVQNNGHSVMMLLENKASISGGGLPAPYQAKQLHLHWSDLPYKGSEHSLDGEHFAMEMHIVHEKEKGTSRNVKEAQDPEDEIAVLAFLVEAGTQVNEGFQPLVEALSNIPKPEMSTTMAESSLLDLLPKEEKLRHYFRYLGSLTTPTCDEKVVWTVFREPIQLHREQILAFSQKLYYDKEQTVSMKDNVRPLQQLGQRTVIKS

Point of comparison: `CCNC(=O)c1cc(C)n(-c2ccc(S(N)(=O)=O)cc2C(=O)NCc2ccccc2)n1` [KK-1h, 1-{4-(aminosulfonyl)-2-[(benzylamino)carbonyl]phenyl}-N-ethyl-5-methyl-1H-pyrazole-3-carboxamide], IC50 2190 nM. Against it:
- CN(CCc1ccccn1)Cc1cc(Cc2ccc(Cl)cc2)n(-c2ccc(S(N)(=O)=O)cc2)n1 [QQ-1c, 4-[5-(4-chlorobenzyl)-3-{[methyl(2-pyridin-2-ylethyl)amino]methyl}-1H-pyrazol-1-yl]benzenesulfonamide] — 5.8-fold lower, 380 nM
- NS(=O)(=O)c1ccc(-n2nc(C(=O)O)cc2Cc2ccccc2)cc1 [pp-2a, 1-[4-(aminosulfonyl)phenyl]-5-benzyl-1H-pyrazole-3-carboxylic acid] — 4.5-fold lower, 492 nM
- Cc1cc(C(=O)N2CCOCC2)nn1-c1ccc(S(N)(=O)=O)cc1CNCc1ccccc1 [LL-1a, 3-[(benzylamino)methyl]-4-(5-methyl-3-(morpholin-4-ylcarbonyl)-1H-pyrazol-1-yl]benzenesulfonamide] — higher, > 5000 nM
- CCCCN(C)Cc1cc(Cc2ccc(Br)cc2)n(-c2ccc(S(N)(=O)=O)cc2F)n1 [QQ-1f] — 13-fold lower, 171 nM
- NS(=O)(=O)c1ccc(-n2nc(CN3CCOCC3)cc2Cc2ccc(Cl)cc2)cc1 [QQ-1a, 4-[5-(4-chlorobenzyl)-3-(morpholin-4-ylmethyl)-1H-pyrazol-1-yl]benzenesulfonamide] — 3.9-fold lower, 563 nM
- NS(=O)(=O)c1ccc(-n2nc3c(c2CN2CCOCC2)CCCC3)cc1 [II-1c, 4-[3-(morpholin-4-ylmethyl)-4,5,6,7-tetrahydro-2H-indazol-2-yl]benzenesulfonamide] — higher, ≥ 5000 nM
- CN(Cc1cc(Cc2ccc(Cl)cc2)n(-c2ccc(S(N)(=O)=O)cc2)n1)C1CCCCC1 [QQ-1o, 4-[5-(4-chlorobenzyl)-3-{[cyclohexyl(methyl)amino]methyl}-1H-pyrazol-1-yl]benzenesulfonamide] — 7.1-fold lower, 308 nM
- NS(=O)(=O)c1ccc(-n2nc(CO)c3c2CCCC3)cc1 [qq-3d, 4-[3-(hydroxymethyl)-4,5,6,7-tetrahydro-1H-indazol-1-yl]benzenesulfonamide] — higher, ≥ 5000 nM
- CCNCc1cc(S(N)(=O)=O)ccc1-n1nc(C(F)(F)F)c2c1CCCC2 [LL-1, 3-[(Ethylamino)methyl]-4-[3-(trifluoromethyl)-4,5,6,7-tetrahydro-1H-indazol-1-yl]-benzene-sulfonamide] — higher, ≥ 5000 nM
- NS(=O)(=O)c1ccc(-n2nc(CNCC3CCCCC3)cc2Cc2ccc(Cl)cc2)cc1 [QQ-1b, 4-[5-(4-chlorobenzyl)-3-{[(cyclohexylmethyl)amino]methyl}-1H-pyrazol-1-yl]benzenesulfonamide] — 7.8-fold lower, 281 nM
- NS(=O)(=O)c1ccc(-n2nc(CN3CC=CCC3)cc2Cc2ccc(Br)cc2)c(F)c1 [QQ-1k, 4-[5-(4-bromobenzyl)-3-(3,6-dihydropyridin-1(2H)-ylmethyl)-1H-pyrazol-1-yl]-3-fluorobenzenesulfonamide] — 8.7-fold lower, 253 nM
- NS(=O)(=O)c1ccc(-n2nc(CN3CC=CCC3)cc2Cc2ccccc2)cc1 [QQ-1l, 4-[5-benzyl-3-(3,6-dihydropyridin-1(2H)-ylmethyl)-1H-pyrazol-1-yl]benzenesulfonamine] — 4-fold lower, 552 nM
- Cc1cccc(Cc2cc(CN3CCC(F)(F)C3)nn2-c2ccc(S(N)(=O)=O)cc2F)c1 [PP-1, 4-[3-[(3,3-difluoropyrrolidin-1-yl)methyl]-5-(3-methylbenzyl)-1H-pyrazol-1-yl]-3-fluorobenzenesulfonamide] — 19-fold lower, 114 nM
- NS(=O)(=O)c1ccc(-n2nc(C(=O)O)cc2Cc2ccc(Cl)cc2)cc1 [pp-2b, 1-[4-(aminosulfonyl)phenyl]-5-(4-chlorobenzyl]-1H-pyrazole-3-carboxylic acid] — 4.8-fold lower, 459 nM
- NS(=O)(=O)c1ccc(-n2nc(CO)cc2Cc2ccccc2)cc1 [qq-3b, 4-[5-benzyl-3-(hydroxymethyl)-1H-pyrazol-1-yl]benzenesulfonamide] — 5-fold lower, 436 nM
- CCOC(=O)c1cc(C)n(-c2ccc(S(N)(=O)=O)cn2)n1 [mm-1, ethyl 1-[5-(aminosulfonyl)pyridin-2-yl]-5-methyl-1H-pyrazole-3-carboxylate] — 2.1-fold lower, 1050 nM

These molecules were tested against T2, human CA-II (Homo sapiens, UniProt P00918) (assay: Carbonic Anhydrase-II (CA-II) Fluorimetric Assay-IC50 Determination). Conditions: Kd ND, IC50 given instead; read-out: CA-II IC50 (where Kd is ND).
T2 construct: purchased Sigma-Aldrich C6165
Type: biochemical
Protocol: Carbonic Anhydrase-II (CA-II) Fluorimetric Assay-IC50 Determination
Compounds were diluted in DMSO at the concentration of 1 mM, then 50 μM and transferred to a 96-well plate for further dilutions (1:3 dilution, 11 points) in duplicate. Highest final concentration of compound in this CA-II Fluorimetric assay is 1 μM. Assays were conducted in a final volume of 100 μL in 50 mM Tris/HCl (pH 7.6), 100 mM Na2SO4 and 0.005% Tween-20 in a 96-well black assay plate. Fluorescein diacetate was used as the substrate. Enzyme inhibition was determined by pipetting 8 μL of human CA-II (5 nM, from Sigma-Aldrich, product #: C6165) into assay plate contained 2 μL of compound and 2 μL of substrate (10 μM) in 88 μL of assay buffer. The rate of the hydrolysis of fluorescein diacetate were measured spectrophometrically at 488 nm (excitation), 538 nm (emission) and 530 nm (cutoff) using a Molecular Devices SpectraMax M2 fluorescence reader at 25° C.

Point of comparison: `CC(C)(C)N(CCC#N)C(=O)c1nc(Cc2ccccc2)n(-c2ccc(S(N)(=O)=O)cc2)n1` [Example R-96, 1-[4-(aminosulfonyl)phenyl]-5-benzyl-N-(tert-butyl)-N-(2-cyanoethyl)-1H-124-triazole-3-carboxamide], IC50 3.34 nM. Against it:
- CCN(Cc1ccccc1)C(=O)c1nc(Cc2ccccc2)n(-c2ccc(S(N)(=O)=O)cc2)n1 [Example R-102, 1-[4-(aminosulfonyl)phenyl]-N5-dibenzyl-N-ethyl-1H-124-triazole-3-carboxamide] — within 1.5-fold, 3 nM

Same assay, conditions: at 10 nM (c7); read-out: CA-II % inhibition at concentration of column 7

Point of comparison: `CCCc1cc(CN(C)C(=O)c2nc(Cc3ccccc3)n(-c3ccc(S(N)(=O)=O)cc3)n2)n[nH]1` [Example R-51, 1-[4-(aminosulfonyl)phenyl]-5-benzyl-N-methyl-N-[(5-propyl-1H-pyrazol-3-yl)methyl]-1H-124-triazole-3-carboxamide], inhibition at 0.01 µM 97%. Against it:
- CN(CCc1cn[nH]c1)C(=O)c1nc(Cc2ccccc2)n(-c2ccc(S(N)(=O)=O)cc2)n1 [Example R-62, 1-[4-(aminosulfonyl)phenyl]-5-benzyl-N-methyl-N-[2-(1H-pyrazol-4-yl)ethyl]-1H-124-triazole-3-carboxamide] — lower, 96%
- NS(=O)(=O)c1ccc(-n2nc(C(=O)N3CCC(c4cccnc4)C3)nc2Cc2ccccc2)cc1 (stereo not drawn) [Example R-69, 4-{5-benzyl-3-[(3-pyridin-3-ylpyrrolidin-1-yl)carbonyl]-1H-124-triazol-1-yl}benzenesulfonamide] — the same, 97%
- CN(Cc1n[nH]c2c1CCCC2)C(=O)c1nc(Cc2ccccc2)n(-c2ccc(S(N)(=O)=O)cc2)n1 [Example R-44, 1-[4-(aminosulfonyl)phenyl]-5-benzyl-N-methyl-N-(4567-tetrahydro-1H-indazol-3-ylmethyl)-1H-124-triazole-3-carboxamide] — lower, 93%
- CN(CCc1ccccc1)C(=O)c1nc(Cc2ccccc2)n(-c2ccc(S(N)(=O)=O)cc2)n1 [Example R-48, 1-[4-(aminosulfonyl)phenyl]-5-benzyl-N-methyl-N-(2-phenylethyl)-1H-124-triazole-3-carboxamide] — the same, 97%

Same assay, conditions: at 100 nM (c7); read-out: CA-II % inhibition at concentration of column 7

Point of comparison: `CC(C)CCN(C)C(=O)c1nc(Cc2ccccc2)n(-c2ccc(S(N)(=O)=O)cc2)n1` [Example R-31, 1-[4-(aminosulfonyl)phenyl]-5-benzyl-N-methyl-N-(3-methylbutyl)-1H-124-triazole-3-carboxamide], inhibition at 0.1 µM 100%. Against it:
- NS(=O)(=O)c1ccc(-n2nc(C(=O)N3CC4CCCC3C4)nc2Cc2ccccc2)cc1 (stereo not drawn) [Example R-26, 4-[3-(6-azabicyclo[3.2.1]oct-6-ylcarbonyl)-5-benzyl-1H-124-triazol-1-yl]bezenesulfonamide] — lower, 99%
- CCN(CCOC)C(=O)c1nc(Cc2ccccc2)n(-c2ccc(S(N)(=O)=O)cc2)n1 [Example R-34, 1-[4-(aminosulfonyl)phenyl]-5-benzyl-N-ethyl-N-(2-methoxyethyl)-1H-124-triazole-3-carboxamide] — lower, 99%
- Cc1ccc(CN(C)C(=O)c2nc(Cc3ccccc3)n(-c3ccc(S(N)(=O)=O)cc3)n2)cc1 [Example R-38, 1-[4-(aminosulfonyl)phenyl]-5-benzyl-N-methyl-N-(4-methylbenzyl)-1H-124-triazole-3-carboxamide] — the same, 100%
- NS(=O)(=O)c1ccc(-n2nc(C(=O)NC3Cc4ccccc4C3)nc2Cc2ccccc2)cc1 [Example R-33, 1-[4-(aminosulfonyl)phenyl]-5-benzyl-N-(23-dihydro-1H-inden-2-yl)-1H-124-triazole-3-carboxamide] — higher, 101%
- CCCCN(CCC)C(=O)c1nc(Cc2ccccc2)n(-c2ccc(S(N)(=O)=O)cc2)n1 [Example R-36, 1-[4-(aminosulfonyl)phenyl]-5-benzyl-N-butyl-N-propyl-1H-124-triazole-3-carboxamide] — the same, 100%

Same assay, conditions: given instead of Kd (ND); read-out: CA-II IC50

Point of comparison: `CCN(CCOC)C(=O)c1nc(Cc2ccccc2)n(-c2ccc(S(N)(=O)=O)cc2)n1` [Example R-34, 1-[4-(aminosulfonyl)phenyl]-5-benzyl-N-ethyl-N-(2-methoxyethyl)-1H-124-triazole-3-carboxamide], IC50 2.99 nM. Against it:
- NS(=O)(=O)c1ccc(-n2nc(C(=O)N3CC4CCCC3C4)nc2Cc2ccccc2)cc1 (stereo not drawn) [Example R-26, 4-[3-(6-azabicyclo[3.2.1]oct-6-ylcarbonyl)-5-benzyl-1H-124-triazol-1-yl]bezenesulfonamide] — within 1.5-fold, 2.84 nM
- NS(=O)(=O)c1ccc(-n2nc(C(=O)N3CCC(c4cccnc4)C3)nc2Cc2ccccc2)cc1 (stereo not drawn) [Example R-69, 4-{5-benzyl-3-[(3-pyridin-3-ylpyrrolidin-1-yl)carbonyl]-1H-124-triazol-1-yl}benzenesulfonamide] — within 1.5-fold, 3.49 nM
- Cc1ccc(CN(C)C(=O)c2nc(Cc3ccccc3)n(-c3ccc(S(N)(=O)=O)cc3)n2)cc1 [Example R-38, 1-[4-(aminosulfonyl)phenyl]-5-benzyl-N-methyl-N-(4-methylbenzyl)-1H-124-triazole-3-carboxamide] — within 1.5-fold, 3.13 nM
- CCCCN(CCC)C(=O)c1nc(Cc2ccccc2)n(-c2ccc(S(N)(=O)=O)cc2)n1 [Example R-36, 1-[4-(aminosulfonyl)phenyl]-5-benzyl-N-butyl-N-propyl-1H-124-triazole-3-carboxamide] — within 1.5-fold, 3.12 nM
- CC(C)CCN(C)C(=O)c1nc(Cc2ccccc2)n(-c2ccc(S(N)(=O)=O)cc2)n1 [Example R-31, 1-[4-(aminosulfonyl)phenyl]-5-benzyl-N-methyl-N-(3-methylbutyl)-1H-124-triazole-3-carboxamide] — within 1.5-fold, 3.03 nM
